pIC50: −log10 of the molar value.
Tested on: 996289-038-R-J1-PDC spheroid viability
Experiment: Anticancer human tumor 996289-038-R-J1-PDC patient-derived colon adenocarcinoma cell line growth inhibition [PI3K]
Details: spheroids with HUVEC and MSC; for pIC50: curve of first compound; for viability, T/C: stronger effect = lower value
How it was run: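 Agents were dosed from a top concentration near clinical Cmax (otherwise 10 microM) in half-log decrements, alone or combined with PI3K inhibitors. The spheroids contain tumor cells plus endothelial (HUVEC) and MSC stroma; viability is measured.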
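Note: spheroids exposed to compounds for seven days before viability read.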
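Throughout, for viability, T/C: luminescence used as a proxy for viable cell amount; percent viability relative to DMSO vehicle control as 100%.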

C=CC(=O)N1CCN(c2nc(=O)n(-c3c(C)ccnc3C(C)C)c3nc(-c4c(O)cccc4F)c(F)cc23)C(C)C1 (configuration not stated) + CC(Nc1ncnc2nc[nH]c12)c1cc2cccc(Cl)c2c(=O)n1-c1ccccc1
pIC50 (second compound 0.0316 µM): < 5.00 | pIC50 (second compound 0.1 µM): < 5.00 | pIC50 (second compound 0.316 µM): < 5.00 | pIC50 (second compound 1 µM): < 5.00 | pIC50 (second compound 3.16 µM): < 5.00 | pIC50 (second compound 10 µM): < 5.00 | viability, T/C (second compound 0.0316 µM, first compound 0.0316 µM): 101% | viability, T/C (second compound 0.0316 µM, first compound 0.1 µM): 97.8% | viability, T/C (second compound 0.0316 µM, first compound 0.316 µM): 91.2% | viability, T/C (second compound 0.0316 µM, first compound 1 µM): 100% | viability, T/C (second compound 0.0316 µM, first compound 3.16 µM): 107% | viability, T/C (second compound 0.0316 µM, first compound 10 µM): 106% | viability, T/C (second compound 0.1 µM, first compound 0.0316 µM): 113% | viability, T/C (second compound 0.1 µM, first compound 0.1 µM): 93.1% | viability, T/C (second compound 0.1 µM, first compound 0.316 µM): 98.1% | viability, T/C (second compound 0.1 µM, first compound 1 µM): 106% | viability, T/C (second compound 0.1 µM, first compound 3.16 µM): 120% | viability, T/C (second compound 0.1 µM, first compound 10 µM): 97% | viability, T/C (second compound 0.316 µM, first compound 0.0316 µM): 95.1% | viability, T/C (second compound 0.316 µM, first compound 0.1 µM): 106% | viability, T/C (second compound 0.316 µM, first compound 0.316 µM): 107% | viability, T/C (second compound 0.316 µM, first compound 1 µM): 107% | viability, T/C (second compound 0.316 µM, first compound 3.16 µM): 105% | viability, T/C (second compound 0.316 µM, first compound 10 µM): 105% | viability, T/C (second compound 1 µM, first compound 0.0316 µM): 93.8% | viability, T/C (second compound 1 µM, first compound 0.1 µM): 88.3% | viability, T/C (second compound 1 µM, first compound 0.316 µM): 101% | viability, T/C (second compound 1 µM, first compound 1 µM): 98.6% | viability, T/C (second compound 1 µM, first compound 3.16 µM): 112% | viability, T/C (second compound 1 µM, first compound 10 µM): 99.6% | viability, T/C (second compound 3.16 µM, first compound 0.0316 µM): 97.2% | viability, T/C (second compound 3.16 µM, first compound 0.1 µM): 101% | viability, T/C (second compound 3.16 µM, first compound 0.316 µM): 88.3% | viability, T/C (second compound 3.16 µM, first compound 1 µM): 101% | viability, T/C (second compound 3.16 µM, first compound 3.16 µM): 118% | viability, T/C (second compound 3.16 µM, first compound 10 µM): 107% | viability, T/C (second compound 10 µM, first compound 0.0316 µM): 103% | viability, T/C (second compound 10 µM, first compound 0.1 µM): 88.4% | viability, T/C (second compound 10 µM, first compound 0.316 µM): 90.7% | viability, T/C (second compound 10 µM, first compound 1 µM): 97.9% | viability, T/C (second compound 10 µM, first compound 3.16 µM): 105% | viability, T/C (second compound 10 µM, first compound 10 µM): 95.9%

— PubChem BioAssay AID1963965 (Molecular Pharmacology Branch, DTP, NCI, 2024)
